Source: US8404692B2, “Pyrimidin-4-yl-3, 4-dihydro-2H-pyrrolo [1,2A] pyrazin-1-one compounds” (Cyclacel Limited, priority 2005, dated 2013)

The compounds below were run against T1, aurora-A (human) (Homo sapiens, UniProt O14965) (assay: Aurora-A (human) kinase assay). Conditions: read-out: Activity (Aurora A activity, IC50 grading).
T1 construct: purchased Upstate, Dundee, UK
T1 sequence (O14965 1-403): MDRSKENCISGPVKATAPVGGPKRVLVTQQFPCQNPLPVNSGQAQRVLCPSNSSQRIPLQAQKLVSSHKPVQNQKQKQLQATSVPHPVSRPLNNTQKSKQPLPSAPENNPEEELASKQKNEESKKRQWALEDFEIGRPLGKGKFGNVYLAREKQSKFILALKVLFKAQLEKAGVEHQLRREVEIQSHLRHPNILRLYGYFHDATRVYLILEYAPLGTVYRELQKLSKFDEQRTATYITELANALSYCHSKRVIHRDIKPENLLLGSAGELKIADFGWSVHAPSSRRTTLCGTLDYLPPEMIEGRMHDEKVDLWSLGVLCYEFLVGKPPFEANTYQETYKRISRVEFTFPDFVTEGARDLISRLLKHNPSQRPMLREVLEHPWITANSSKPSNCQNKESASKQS
Assay type: biochemical
Description: This was achieved by measurement of incorporation of radioactive phosphate from ATP into Kemptide substrate (LRRASLG), upon phosphorylation by commercially obtained aurora-A (human, Upstate; Dundee, UK). Assays were performed using 96-well plates and appropriate assay buffers (20 mM Tris, 25 mM β-glycerophosphate, 5 mM EGTA, 1 mM DTT, 1 mM sodium vanadate, pH 7.5), into which were added 2-5 ng of active enzyme with 500 μM substrate (Kemptide). The reactions were initiated by addition of MATP mix (15 mM MgCl2+100 μM ATP with 15-25 kBq per well of [γ-^32P]-ATP) and mixtures incubated for 30 min at 30° C. Reactions were stopped by addition of an equal volume of 75 mM aq orthophosphoric acid, followed by filtration through p81 filterplates (Whatman Polyfiltronics, Kent, UK). After washing 4 times with 75 mM aq orthophosphoric acid, plates were dried, scintillant added and incorporated radioactivity measured in a scintillation counter (TopCount, Packard Instruments, Pangbourne, Berks, UK). Compounds for kinase assay were made up as 10 mM stocks in DMSO and diluted into 10% DMSO in assay buffer. Data was analysed using curve-fitting software (XLfit version 4.0.2, IDBS, Guildford, Surrey, UK) to determine IC50 values (concentration of test compound which inhibits kinase activity by 50%).

`Cc1c(-c2ccnc(Nc3ccc(S(=O)(=O)N4CCCC4)cc3)n2)c(C)n2c1C(=O)NCC2` [Example I-55, 6,8-Dimethyl-7-{2-[4-(pyrrolidine-1-sulfonyl)-phenylamino]-pyrimidin-4-yl}-3,4-dihydro-2H-pyrrolo[1,2-a]pyrazin-1-one] and `Cc1c(-c2ccnc(Nc3ccc(S(=O)(=O)N4CCCCC4)cc3)n2)c(C)n2c1C(=O)NCC2` [Example I-56, 6,8-Dimethyl-7-{2-[4-(piperidine-1-sulfonyl)-phenylamino]-pyrimidin-4-yl}-dihydro-2H-pyrrolo[1,2-a]pyrazin-1-one] cannot be ordered by IC50: under 1000 nM for the first, under 100 nM for the second.

`Cc1c(-c2ccnc(Nc3ccc(OCc4ccccc4)cc3)n2)c(C)n2c1C(=O)NCC2` [Example I-57, 7-[2-(4-Benzyloxy-phenylamino)-pyrimidin-4-yl]-6,8-dimethyl-3,4-dihydro-2H-pyrrolo[1,2-a]pyrazin-1-one] and `Cc1c(-c2ccnc(Nc3ccc(-n4cccc4)cc3)n2)c(C)n2c1C(=O)NCC2` [Example I-74, 6,8-Dimethyl-7-[2-(4-pyrrol-1-yl-phenylamino)-pyrimidin-4-yl]-3,4-dihydro-2H-pyrrolo[1,2-a]pyrazin-1-one] cannot be ordered by IC50: under 10000 nM for the first, under 1000 nM for the second.

`Cc1c(-c2ccnc(Nc3cccc(C(=O)c4ccccc4)c3)n2)c(C)n2c1C(=O)NCC2` [Example I-58, 7-[2-(3-Benzoyl-phenylamino)-pyrimidin-4-yl]-6,8-dimethyl-3,4-dihydro-2H-pyrrolo[1,2-a]pyrazin-1-one] and `CC(=O)Nc1cccc(Nc2nccc(-c3c(C)c4n(c3C)CCNC4=O)n2)c1` [Example I-59, N-{3-[4-(6,8-Dimethyl-1-oxo-1,2,3,4-tetrahydro-pyrrolo[1,2-a]pyrazin-7-yl)-pyrimidin-2-ylamino]-phenyl}-acetamide] cannot be ordered by IC50: under 1000 nM for the first, under 100 nM for the second.

`Cc1c(-c2ccnc(Nc3ccc(-c4csnn4)cc3)n2)c(C)n2c1C(=O)NCC2` [Example I-60, 6,8-Dimethyl-7-[2-(4-[1,2,3]thiadiazol-4-yl-phenylamino)-pyrimidin-4-yl]-3,4-dihydro-2H-pyrrolo[1,2-a]pyrazin-1-one] and `Cc1nc(-c2ccc(Nc3nccc(-c4c(C)c5n(c4C)CCNC5=O)n3)cc2)cs1` [Example I-71, 6,8-Dimethyl-7-{2-[4-(2-methyl-thiazol-4-yl)-phenylamino]-pyrimidin-4-yl}-3,4-dihydro-2H-pyrrolo[1,2-a]pyrazin-1-one] cannot be ordered by IC50: under 100 nM for the first, under 1000 nM for the second.

`Cc1c(-c2ccnc(Nc3ccc(OC(F)(F)F)cc3)n2)c(C)n2c1C(=O)NCC2` [Example I-61, 6,8-Dimethyl-7-[2-(4-trifluoromethoxy-phenylamino)pyrimidin-4-yl]-3,4-dihydro-2H-pyrrolo[1,2-a]pyrazin-1-one] and `Cc1c(-c2ccnc(Nc3ccc(C(F)(F)F)cc3)n2)c(C)n2c1C(=O)NCC2` [Example I-68, 6,8-Dimethyl-7-[2-(4-trifluoromethyl-phenylamino)-pyrimidin-4-yl]-3,4-dihydro-2H-pyrrolo[1,2-a]pyrazin-1-one] cannot be ordered by IC50: under 1000 nM for the first, under 10000 nM for the second.

`Cc1c(-c2ccnc(Nc3ccc4c(c3)OCCCO4)n2)c(C)n2c1C(=O)NCC2` [Example I-62, 7-[2-(3,4-Dihydro-2H-benzo[b][1,4]dioxepin-7-ylamino)-pyrimidin-4-yl]-6,8-dimethyl-3,4-dihydro-2H-pyrrolo[1,2-a]pyrazin-1-one] and `Cc1c(-c2ccnc(Nc3ccc(F)c(Cl)c3)n2)c(C)n2c1C(=O)NCC2` [Example I-64, 7-[2-(3-Chloro-4-fluoro-phenylamino)-pyrimidin-4-yl]-6,8-dimethyl-3,4-dihydro-2H-pyrrolo[1,2-a]pyrazin-1-one] cannot be ordered by IC50: under 100 nM for the first, under 1000 nM for the second.

`Cc1c(-c2ccnc(Nc3ccc4c(c3)CS(=O)(=O)C4)n2)c(C)n2c1C(=O)NCC2` [Example I-63, 7-[2-(2,2-Dioxo-2,3-dihydro-1H-2-benzo[c]thiophen-5-ylamino)-pyrimidin-4-yl]-6,8-dimethyl-3,4-dihydro-2H-pyrrolo[1,2-a]pyrazin-1-one] and `Cc1c(-c2ccnc(Nc3cccc(Cl)c3)n2)c(C)n2c1C(=O)NCC2` [Example I-69, 7-[2-(3-Chloro-phenylamino)-pyrimidin-4-yl]-6,8-dimethyl-3,4-dihydro-2H-pyrrolo[1,2-a]pyrazin-1-one] cannot be ordered by IC50: under 100 nM for the first, under 1000 nM for the second.

`Cc1c(-c2ccnc(Nc3ccccc3F)n2)c(C)n2c1C(=O)NCC2` [Example I-65, 7-[2-(2-Fluoro-phenylamino)-pyrimidin-4-yl]-6,8-dimethyl-3,4-dihydro-2H-pyrrolo[1,2-a]pyrazin-1-one] and `Cc1c(-c2ccnc(Nc3ccc(F)cc3F)n2)c(C)n2c1C(=O)NCC2` [Example I-66, 7-[2-(2,4-Difluoro-phenylamino)-pyrimidin-4-yl]-6,8-dimethyl-3,4-dihydro-2H-pyrrolo[1,2-a]pyrazin-1-one] cannot be ordered by IC50: under 1000 nM for the first, under 10000 nM for the second.

`COc1ccc(Nc2nccc(-c3c(C)c4n(c3C)CCNC4=O)n2)cc1Cl` [Example I-67, 7-[2-(3-Chloro-4-methoxy-phenylamino)-pyrimidin-4-yl]-6,8-dimethyl-3,4-dihydro-2H-pyrrolo[1,2-a]pyrazin-1-one] and `CNc1ccc(Nc2nccc(-c3c(C)c4n(c3C)CCNC4=O)n2)cc1OC` [Example I-76, 7-[2-(3-Methoxy-4-methylamino-phenylamino)-pyrimidin-4-yl]-6,8-dimethyl-3,4-dihydro-2H-pyrrolo[1,2-a]pyrazin-1-one] cannot be ordered by IC50: under 100 nM for the first, under 1000 nM for the second.

`Cc1c(-c2ccnc(Nc3ccc(CC(=O)O)cc3)n2)c(C)n2c1C(=O)NCC2` [Example I-70, {4-[4-(6,8-dimethyl-1-oxo-1,2,3,4-tetrahydro-pyrrolo[1,2-a]pyrazin-7-yl)-pyrimidin-2-ylamino]-phenyl}-acetic acid] and `Cc1c(-c2ccnc(Nc3ccc(C#N)cc3)n2)c(C)n2c1C(=O)NCC2` [Example I-77, 4-[4-(6,8-Dimethyl-1-oxo-1,2,3,4-tetrahydro-pyrrolo[1,2-a]pyrazin-7-yl)-pyrimidin-2-ylamino]-benzonitrile] cannot be ordered by IC50: under 100 nM for the first, under 1000 nM for the second.

`Cc1c(-c2ccnc(Nc3ccc(-n4cccn4)cc3)n2)c(C)n2c1C(=O)NCC2` [Example I-72, 6,8-Dimethyl-7-[2-(4-pyrazol-1-yl-phenylamino)-pyrimidin-4-yl]-3,4-dihydro-2H-pyrrolo[1,2-a]pyrazin-1-one] and `Cc1c(-c2ccnc(Nc3ccc(-n4cncn4)cc3)n2)c(C)n2c1C(=O)NCC2` [Example I-73, 6,8-Dimethyl-7-[2-(4-[1,2,4]triazol-1-yl-phenylamino)-pyrimidin-4-yl]-3,4-dihydro-2H-pyrrolo[1,2-a]pyrazin-1-one] cannot be ordered by IC50: under 1000 nM for the first, under 1000 nM for the second.

`Cc1c(-c2ccnc(Nc3ccc(-c4cn5c(n4)SCC5)cc3)n2)c(C)n2c1C(=O)NCC2` [Example I-75, 7-{2-[4-(2,3-Dihydro-imidazo[2,1-b]thiazol-6-yl)-phenylamino]-pyrimidin-4-yl}-6,8-dimethyl-3,4-dihydro-2H-pyrrolo[1,2-a]pyrazin-1-one] and `Cc1c(-c2ccnc(Nc3ccc(-c4csc(CC(N)=O)n4)cc3)n2)c(C)n2c1C(=O)NCC2` [Example I-83, 2-(4-{4-[4-(6,8-Dimethyl-1-oxo-1,2,3,4-tetrahydro-pyrrolo[1,2-a]pyrazin-7-yl)-pyrimidin-2-ylamino]-phenyl}-thiazol-2-yl)-acetamide] cannot be ordered by IC50: under 100 nM for the first, under 1000 nM for the second.

`Cc1c(-c2ccnc(Nc3ccc(-c4cccnc4)cc3)n2)c(C)n2c1C(=O)NCC2` [Example I-78, 6,8-Dimethyl-7-[2-(4-pyridin-3-yl-phenylamino)-pyrimidin-4-yl]-3,4-dihydro-2H-pyrrolo[1,2-a]pyrazin-1-one] and `Cc1c(-c2ccnc(Nc3ccc(-c4ccno4)cc3)n2)c(C)n2c1C(=O)NCC2` [Example I-82, 7-[2-(4-Isoxazol-5-yl-phenylamino)-pyrimidin-4-yl]-6,8-dimethyl-3,4-dihydro-2H-pyrrolo[1,2-a]pyrazin-1-one] cannot be ordered by IC50: under 1000 nM for the first, under 100 nM for the second.

`Cc1c(-c2ccnc(Nc3ccc(-c4nncn4C)cc3)n2)c(C)n2c1C(=O)NCC2` [Example I-79, 6,8-Dimethyl-7-{2-[4-(4-methyl-4H-[1,2,4]triazol-3-yl)-phenylamino]-pyrimidin-4-yl}-3,4-dihydro-2H-pyrrolo[1,2-a]pyrazin-1-one] and `Cc1cc(C)n(-c2ccc(Nc3nccc(-c4c(C)c5n(c4C)CCNC5=O)n3)cc2)n1` [Example I-80, 7-{2-[4-(3,5-Dimethyl-pyrazol-1-yl)-phenylamino]-pyrimidin-4-yl}-6,8-dimethyl-3,4-dihydro-2H-pyrrolo[1,2-a]pyrazin-1-one] cannot be ordered by IC50: under 1000 nM for the first, under 1000 nM for the second.

Work on `CCOC(=O)c1cnn(-c2ccc(Nc3nccc(-c4c(C)c5n(c4C)CCNC5=O)n3)cc2)c1C` [Example I-81, 1-{4-[4-(6,8-Dimethyl-1-oxo-1,2,3,4-tetrahydro-pyrrolo[1,2-a]pyrazin-7-yl)-pyrimidin-2-ylamino]-phenyl}-5-methyl-1H-pyrazole-4-carboxylic acid ethyl ester] yielded an IC50 of under 1000 nM.
